The numbers were not newly measured in patent US9186326B2 (Kimia Zist Parsian (KZP), priority 2014, dated 2015), which cites them from elsewhere.

The data set relates to glucocorticoid effect.

For the substance Dexamethasone, the mineral corticoid effect result is recorded as “minimal mineral corticoid effect”. Further, the “potency relative to cortisol in glucocorticoid effect” value (versus cortisol) is “twenty five”.
